Measured values from PubChem BioAssay (NCI).
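Grown in 96-well plates, cells were treated for 48 hours with each compound at five concentrations. Insufficient inhibition: endpoint recorded as highest concentration tested. GI50: concentration for 50% inhibition of growth. TGI: concentration producing complete growth inhibition.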

Key:
Assay in all cases: NCI tumour cell line growth inhibition, 48 h
HCC-2998 colon = tested on: HCC-2998 colon
SK-MEL-28 melanoma = tested on: SK-MEL-28 melanoma
HT29 colon = tested on: HT29 colon
MOLT-4 leukemia = tested on: MOLT-4 leukemia
786-0 renal = tested on: 786-0 renal
A498 renal = tested on: A498 renal
K-562 leukemia = tested on: K-562 leukemia
PC-3 prostate = tested on: PC-3 prostate
MDA-N = tested on: MDA-N

| SMILES | TGI (HCC-2998 colon) [µM] | TGI (SK-MEL-28 melanoma) [µM] | TGI (HT29 colon) [µM] | TGI (MOLT-4 leukemia) [µM] | TGI (786-0 renal) [µM] | TGI (A498 renal) [µM] | TGI (K-562 leukemia) [µM] | TGI (PC-3 prostate) [µM] | TGI (MDA-N) [µM] | GI50 (HCC-2998 colon) [µM] | GI50 (SK-MEL-28 melanoma) [µM] | GI50 (HT29 colon) [µM] | GI50 (A498 renal) [µM] | GI50 (PC-3 prostate) [µM] | GI50 (MOLT-4 leukemia) [µM] | GI50 (K-562 leukemia) [µM] |
| --- | --- | --- | --- | --- | --- | --- | --- | --- | --- | --- | --- | --- | --- | --- | --- | --- |
| CC(=O)N=C1N(/C=C2\C(=O)Oc3ccccc3C2=O)C(=O)/C(=C/c2ccc(Cl)cc2Cl)N1C | > 100 | > 100 | > 100 | > 100 | > 100 | > 100 | > 100 | > 100 |  |  |  |  |  |  |  |  |
| COC(=O)[C@H](Cc1c[nH]c2ccccc12)NC(=O)c1ccc(CNC(=O)/C=C/c2cccc(Oc3ccccc3)c2)cc1 | > 100 | > 100 | > 100 | > 100 | > 100 | > 100 | > 100 | > 100 | 23.9 |  |  |  |  |  |  |  |
| CCNC(=O)c1c(O)c2ccccc2[nH]c1=O | > 100 | > 100 | > 100 | > 100 | > 100 | > 100 | > 100 | > 100 | > 100 |  |  |  |  |  |  |  |
| Cc1ccc(/C=N/Nc2ccc3ccccc3n2)s1 | 30.7 | 55.9 | 44 | > 100 | 35.8 |  | > 100 | 31.5 | 29.2 |  |  |  |  |  |  |  |
| Clc1ccc(C(SCc2ccccc2)SCc2ccccc2)cc1 | > 10 | > 10 | > 10 | > 10 | > 10 | > 10 | > 10 | > 10 | > 10 |  |  |  |  |  |  |  |
| Clc1ccc(C2Nc3ccccc3C3=NCCN32)cc1 (centres undefined) |  | 34.6 | 38.5 | > 100 | 48.9 | 63.7 | 46.2 | > 100 | 39.8 |  |  |  |  |  |  |  |
| O=C(N/N=C1/C(=O)c2c3ccccc3cc3cccc1c23)c1ccccc1 |  | > 95.6 | > 87.9 | > 100 | 43.1 | > 57.4 | > 100 | > 84.1 | > 100 |  |  |  |  |  |  |  |
| FC(F)(F)c1cccc(-c2nc3ccccc3c3c2[C@@]2(N4CCCC4)CCCC[C@@H]32)c1 |  |  | > 100 | > 100 | > 100 | 95.6 | > 100 | > 100 | > 100 |  |  |  |  |  |  |  |
| COc1ccc(CN=C(N)N)c2ccccc12 |  | 86.5 | > 100 | > 100 | > 100 |  |  | > 100 | > 100 |  |  |  |  |  |  |  |
| O=[N+]([O-])c1cc2c(cc1/C=N/n1c(CO)nc3ccccc31)OCO2 |  | > 100 | > 100 | > 100 | > 100 | > 100 | > 100 | > 100 | > 100 |  |  |  |  |  |  |  |
| Cc1noc(NC2=CC(=O)C(=O)c3ccccc32)c1C |  | > 100 | 88 | 47.4 | > 100 | > 100 | 0.872 | > 100 | 1.57 |  |  |  |  |  |  |  |
| CCOP(=O)(OCC)C(C#N)Cc1ccco1 (centres undefined) | > 10 | > 10 | > 10 | > 10 | > 10 | > 10 | > 10 | > 10 | > 10 |  |  |  |  |  |  |  |
| O=C1OC(=O)c2cc(S(=O)(=O)c3ccc4c(c3)C(=O)OC4=O)ccc21 | > 100 | > 100 | > 100 |  | > 100 |  | > 100 | > 100 | > 100 |  |  |  |  |  |  |  |
| COc1cc2c(cc1OC)C1(COc3cc(O)c(O)c(O)c3C1=O)C2 (centres undefined) |  | > 50 | > 50 | > 50 | > 50 | > 50 | > 50 | > 50 | > 50 |  |  |  |  |  |  |  |
| CC(=O)OC[C@@H](OC(C)=O)[C@H](OC(C)=O)[C@@H]1OC(C)(C)O[C@@H]1C1SCCCS1 | > 100 | > 100 |  | > 100 | > 100 | > 100 | > 100 | > 100 | > 100 |  |  |  |  |  |  |  |
| O=S(=O)(/N=C(\NO)Nc1ccc(Cl)cc1)c1cccc2nsnc12 |  | 46.6 | > 100 | > 100 | 80.7 |  | > 100 | > 100 | 79 |  |  |  |  |  |  |  |
| COc1c(O)cc2c(c1O)C(=O)/C(=C/c1ccc(O)cc1)CO2 |  | 35.3 | 41.1 | > 100 | 75.5 | > 100 | 95.2 | > 100 | > 100 |  |  |  |  |  |  |  |
| COc1ccc(N2C(=O)C3c4[nH]c5ccc(F)cc5c4C4CCC(c5ccccc5)CC4C3C2=O)cc1 (centres undefined) | > 100 | 32.7 | > 100 |  | 12.1 | 34.3 | 14.2 | 35.2 | > 100 |  |  |  |  |  |  |  |
| Nc1nc(N)c2cc(NCc3ccc(Cl)c(Cl)c3)ccc2n1 | 2.51 | 3.15 | 2.05 |  |  | 2.41 |  | 1.96 |  | 1.16 | 1.77 | 0.813 | 1.16 | 0.623 |  |  |
| COC(C)(C)C1(O)CCC(C)CC1=O (centres undefined) | > 100 | > 100 | > 100 | > 100 | > 100 | > 100 |  | > 100 | > 100 |  |  |  |  |  |  |  |
| CCOC(=O)CC(=O)Nc1cccc2[nH]cnc12 |  | > 100 | > 100 | > 100 | > 100 | > 100 | > 100 | > 100 | > 100 |  |  |  |  |  |  |  |
| Cc1ccc(/C(O)=C/c2nc3ccccc3s/c2=N/CS(=O)(=O)c2ccc(C)cc2)cc1 | > 10 | > 10 | > 10 | > 10 | > 10 |  | > 10 | > 10 | > 10 |  |  |  |  |  |  |  |
| CN(c1ccccc1Cl)S(=O)(=O)c1ccc([N+](=O)[O-])cc1 | > 100 | > 100 | > 100 | > 100 | > 100 |  | > 100 | > 100 | > 100 |  |  |  |  |  |  |  |
| O=C(Nc1ccc(-n2ccc3c(NC(=O)c4ccccc4)ncnc32)cc1)Nc1cccc(Cl)c1Cl | 19.9 | 2.45 | 2.11 | > 50 |  | 2.04 | 6.04 | 1.57 |  | 2.99 | 0.99 | 0.808 | 0.752 | 0.582 | 1.71 | 0.985 |
